In one test the target is BRD4-BD1 (Homo sapiens (Human), UniProt O60885). Nature of the test: BRD4 AlphaScreen assay, BRD4-BD1. It is filed as binding. Conditions: biotin-labeled tetra-acetylated histone H4 peptide, 75 min, room temperature, read-out: BRD4 BD-1 enzyme IC50. Summed up:
(§1)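 AlphaScreen displacement of 50 nM biotin-tetra-acetylated H4 peptide from 3.8 nM BRD4-BD1 (1.25% DMSO) or 20 nM BRD4-BD2 (0.83% DMSO) in HEPES pH 7.4 buffer, 75 min RT. Streptavidin donor/GSH acceptor beads added, 75 min dark; IC50 from log-concentration curve fit.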
A general note: In Alpha technology, singlet oxygen from a donor bead excites a nearby acceptor bead.

The target of the next test is BRD4-BD2 (Homo sapiens (Human), UniProt O60885). Description: BRD4 AlphaScreen assay, BRD4-BD2. It is filed as binding. The conditions noted are these: biotin-labeled tetra-acetylated histone H4 peptide, 75 min, room temperature, read-out: BRD4 BD-2 enzyme IC50. The method in brief: as §1

Each structure is given as a SMILES string.

In general, IC50 refers to the concentration needed to halve the response being measured. As to `Cc1nnc2ccc3c(cc(-c4cccs4)n3Cc3ccccc3)n12` [Example 73, 6-benzyl-1-methyl-7-(2-thienyl)-6H-pyrrolo[2,3-e][1,2,4]triazolo[4,3-a]pyridine], the IC50 at BRD4-BD1 was 100 to 1000 nM; on BRD4-BD2 it was not above 100 nM.
For `Cc1nnc2ccc3c(cc(-c4c[nH]cn4)n3Cc3ccccc3)n12` [Example 74, 6-benzyl-7-(1H-imidazol-4-yl)-1-methyl-6H-pyrrolo[2,3-e][1,2,4]triazolo[4,3-a]pyridine], the IC50 at BRD4-BD1 and on BRD4-BD2 was not above 100 nM throughout.
Turning to `Cc1nnc2ccc3c(cc(-c4cn(CCN5CCOCC5)cn4)n3Cc3ccccc3)n12` [Example 75, 6-benzyl-1-methyl-7-[1-(2-morpholin-4-ylethyl)-1H-imidazol-4-yl]-6H-pyrrolo[2,3-e][1,2,4]triazolo[4,3-a]pyridine], the IC50 at BRD4-BD1 and on BRD4-BD2 was not above 100 nM in each case.
For `Cc1nnc2ccc3c(cc(-c4ccn(C)n4)n3Cc3ccccc3)n12` [Example 76, 6-benzyl-1-methyl-7-(1-methyl-1H-pyrazol-3-yl)-6H-pyrrolo[2,3-e][1,2,4]triazolo[4,3-a]pyridine], the IC50 on BRD4-BD1 and on BRD4-BD2 was not above 100 nM throughout.
Turning to `Cc1nnc2ccc3c(cc(-c4ccn(CCN5CCOCC5)n4)n3Cc3ccccc3)n12` [Example 77, 6-benzyl-1-methyl-7-[1-(2-morpholin-4-ylethyl)-1H-pyrazol-3-yl]-6H-pyrrolo[2,3-e][1,2,4]triazolo[4,3-a]pyridine], the IC50 at BRD4-BD1 and on BRD4-BD2 was not above 100 nM throughout.
`Cc1nnc2ccc3c(cc(-c4ccn(CCC#N)n4)n3Cc3ccccc3)n12` [Example 78, 3-[3-(6-benzyl-1-methyl-6H-pyrrolo[2,3-e][1,2,4]triazolo[4,3-a]pyridin-7-yl)-1H-pyrazol-1-yl]propanenitrile]: the IC50 on BRD4-BD1 and at BRD4-BD2 was not above 100 nM in each case.
For the compound `CCn1ccc(-c2cc3c(ccc4nnc(C)n43)n2Cc2ccccc2)n1` [Example 79, 6-benzyl-7-(1-ethyl-1H-pyrazol-3-yl)-1-methyl-6H-pyrrolo[2,3-e][1,2,4]triazolo[4,3-a]pyridine], the IC50 on BRD4-BD1 and at BRD4-BD2 was not above 100 nM in each case.
As for `CCn1cnc(-c2cc3c(ccc4nnc(C)n43)n2Cc2ccccc2)c1` [Example 80, 6-benzyl-7-(1-ethyl-1H-imidazol-4-yl)-1-methyl-6H-pyrrolo[2,3-e][1,2,4]triazolo[4,3-a]pyridine], the IC50 on BRD4-BD1 and at BRD4-BD2 was not above 100 nM each time.
On to `Cc1nnc2ccc3c(cc(-c4cn(CCC#N)cn4)n3Cc3ccccc3)n12` [Example 81, 3-[4-(6-benzyl-1-methyl-6H-pyrrolo[2,3-e][1,2,4]triazolo[4,3-a]pyridin-7-yl)-1H-imidazol-1-yl]propanenitrile], for which the IC50 on BRD4-BD1 and on BRD4-BD2 was not above 100 nM in each case.
Take `CNC(=O)c1cc2c(ccc3nnc(C)n32)n1Cc1ccccc1` [Example 82, 6-benzyl-N,1-dimethyl-6H-pyrrolo[2,3-e][1,2,4]triazolo[4,3-a]pyridine-7-carboxamide]: the IC50 on BRD4-BD1 and on BRD4-BD2 was not above 100 nM each time.
In the case of `CCCNC(=O)c1cc2c(ccc3nnc(C)n32)n1Cc1ccccc1` [Example 83, 6-benzyl-1-methyl-N-propyl-6H-pyrrolo[2,3-e][1,2,4]triazolo[4,3-a]pyridine-7-carboxamide], the IC50 at BRD4-BD1 and on BRD4-BD2 was not above 100 nM each time.
Regarding `Cc1nnc2ccc3c(cc(C(=O)NC(C)C)n3Cc3ccccc3)n12` [Example 84, 6-benzyl-N-isopropyl-1-methyl-6H-pyrrolo[2,3-e][1,2,4]triazolo[4,3-a]pyridine-7-carboxamide], the IC50 on BRD4-BD1 and at BRD4-BD2 was 100 to 1000 nM in each case.
For the compound `Cc1nnc2ccc3c(cc(C(=O)NC4CCC4)n3Cc3ccccc3)n12` [Example 85, 6-benzyl-N-cyclobutyl-1-methyl-6H-pyrrolo[2,3-e][1,2,4]triazolo[4,3-a]pyridine-7-carboxamide], the IC50 at BRD4-BD1 and at BRD4-BD2 was not above 100 nM in each case.
Consider `Cc1nnc2ccc3c(cc(C(=O)N[C@H](C)C(F)(F)F)n3Cc3ccccc3)n12` [Example 86, 6-benzyl-1-methyl-N-[(1R)-2,2,2-trifluoro-1-methylethyl]-6H-pyrrolo[2,3-e][1,2,4]triazolo[4,3-a]pyridine-7-carboxamide], for which the IC50 on BRD4-BD1 and on BRD4-BD2 was 100 to 1000 nM each time.
Take `Cc1nnc2ccc3c(cc(-c4ccn(CCN(C)C)n4)n3Cc3ccccc3)n12` [Example 89, 2-[3-(6-benzyl-1-methyl-6H-pyrrolo[2,3-e][1,2,4]triazolo[4,3-a]pyridin-7-yl)-1H-pyrazol-1-yl]-N,N-dimethylethanamine]: the IC50 on BRD4-BD1 is 100 to 1000 nM; at BRD4-BD2, not above 100 nM.
Regarding `Cc1nnc2ccc3c(cc(-c4ccn(C5(CC#N)CNC5)n4)n3Cc3ccccc3)n12` [Example 90, {3-[3-(6-benzyl-1-methyl-6H-pyrrolo[2,3-e][1,2,4]triazolo[4,3-a]pyridin-7-yl)-1H-pyrazol-1-yl]azetidin-3-yl}acetonitrile], the IC50 at BRD4-BD1 and on BRD4-BD2 was not above 100 nM in each case.
On to `CC(=O)N1CC(CC#N)(n2ccc(-c3cc4c(ccc5nnc(C)n54)n3Cc3ccccc3)n2)C1` [Example 91, {1-acetyl-3-[3-(6-benzyl-1-methyl-6H-pyrrolo[2,3-e][1,2,4]triazolo[4,3-a]pyridin-7-yl)-1H-pyrazol-1-yl]azetidin-3-yl}acetonitrile], for which the IC50 at BRD4-BD1 and at BRD4-BD2 was not above 100 nM throughout.
For `Cc1nnc2ccc3c(cc(-c4ccn(C5(CC#N)CN(S(C)(=O)=O)C5)n4)n3Cc3ccccc3)n12` [Example 92, [3-[3-(6-benzyl-1-methyl-6H-pyrrolo[2,3-e][1,2,4]triazolo[4,3-a]pyridin-7-yl)-1H-pyrazol-1-yl]-1-(methylsulfonyl)azetidin-3-yl]acetonitrile], the half-inhibitory concentration (IC50) on BRD4-BD1 and on BRD4-BD2 was not above 100 nM throughout.
For `Cc1nnc2ccc3c(cc(-c4ccn(C5(CC#N)CN(C)C5)n4)n3Cc3ccccc3)n12` [Example 93, {3-[3-(6-benzyl-1-methyl-6H-pyrrolo[2,3-e][1,2,4]triazolo[4,3-a]pyridin-7-yl)-1H-pyrazol-1-yl]-1-methylazetidin-3-yl}acetonitrile], the IC50 at BRD4-BD1 and at BRD4-BD2 was not above 100 nM each time.
`Cc1nnc2ccc3c(cc(C(=O)N(C)C)n3Cc3ccccc3)n12` [Example 94, 6-benzyl-N,N,1-trimethyl-6H-pyrrolo[2,3-e][1,2,4]triazolo[4,3-a]pyridine-7-carboxamide]: the IC50 on BRD4-BD1 and at BRD4-BD2 was 100 to 1000 nM throughout.
Regarding `Cc1nnc2ccc3c(cc(-c4ccn(CCC(=O)N(C)C)n4)n3Cc3ccccc3)n12` [Example 95, 3-[3-(6-benzyl-1-methyl-6H-pyrrolo[2,3-e][1,2,4]triazolo[4,3-a]pyridin-7-yl)-1H-pyrazol-1-yl]-N,N-dimethylpropanamide], the IC50 at BRD4-BD1 and at BRD4-BD2 was not above 100 nM each time.
For the compound `CCNC(=O)CCn1ccc(-c2cc3c(ccc4nnc(C)n43)n2Cc2ccccc2)n1` [Example 96, 3-[3-(6-benzyl-1-methyl-6H-pyrrolo[2,3-e][1,2,4]triazolo[4,3-a]pyridin-7-yl)-1H-pyrazol-1-yl]-N-ethylpropanamide], the IC50 on BRD4-BD1 and at BRD4-BD2 was not above 100 nM in each case.
For the compound `Cc1nnc2ccc3c(cc(-c4ccn(CCC(N)=O)n4)n3Cc3ccccc3)n12` [Example 98, 3-[3-(6-benzyl-1-methyl-6H-pyrrolo[2,3-e][1,2,4]triazolo[4,3-a]pyridin-7-yl)-1H-pyrazol-1-yl]propanamide], the IC50 at BRD4-BD1 and on BRD4-BD2 was not above 100 nM each time.
On to `CNC(=O)c1cc2c(ccc3nnc(C)n32)n1Cc1cccc(Cl)c1` [Example 99, 6-(3-chlorobenzyl)-N,1-dimethyl-6H-pyrrolo[2,3-e][1,2,4]triazolo[4,3-a]pyridine-7-carboxamide], for which the IC50 on BRD4-BD1 and on BRD4-BD2 was not above 100 nM in each case.
Take `Cc1nnc2ccc3c(cc(C(=O)N[C@H]4C[C@H](C#N)C4)n3Cc3ccccc3)n12` [Example 100, 6-benzyl-N-(trans-3-cyanocyclobutyl)-1-methyl-6H-pyrrolo[2,3-e][1,2,4]triazolo[4,3-a]pyridine-7-carboxamide]: the IC50 on BRD4-BD1 and on BRD4-BD2 was not above 100 nM in each case.
Regarding `Cc1nnc2ccc3c(cc(C(=O)N[C@H]4C[C@@H](C#N)C4)n3Cc3ccccc3)n12` [Example 101, 6-benzyl-N-(cis-3-cyanocyclobutyl)-1-methyl-6H-pyrrolo[2,3-e][1,2,4]triazolo[4,3-a]pyridine-7-carboxamide], the IC50 at BRD4-BD1 and on BRD4-BD2 was 100 to 1000 nM in each case.
Take `CNC(=O)c1cc2c(ccc3nnc(C)n32)n1Cc1cccc(F)c1` [Example 102, 6-(3-fluorobenzyl)-N,1-dimethyl-6H-pyrrolo[2,3-e][1,2,4]triazolo[4,3-a]pyridine-7-carboxamide]: the half-inhibitory concentration (IC50) at BRD4-BD1 and at BRD4-BD2 was not above 100 nM in each case.
`Cc1nnc2ccc3c(cc(-c4ccn(CCC(=O)N(C)C)n4)n3Cc3cccc(Cl)c3)n12` [Example 103, 3-{3-[6-(3-chlorobenzyl)-1-methyl-6H-pyrrolo[2,3-e][1,2,4]triazolo[4,3-a]pyridin-7-yl]-1H-pyrazol-1-yl}-N,N-dimethylpropanamide]: the IC50 on BRD4-BD1 and on BRD4-BD2 was not above 100 nM in each case.
In the case of `Cc1nnc2ccc3c(cc(-c4ccn(CCC(=O)N5CCC5)n4)n3Cc3cccc(Cl)c3)n12` [Example 104, 7-[1-(3-azetidin-1-yl-3-oxopropyl)-1H-pyrazol-3-yl]-6-(3-chlorobenzyl)-1-methyl-6H-pyrrolo[2,3-e][1,2,4]triazolo[4,3-a]pyridine], the IC50 on BRD4-BD1 and on BRD4-BD2 was not above 100 nM each time.

These data come from US9777003B2, “Tricyclic heterocycles as bet protein inhibitors” (Incyte Corporation, priority 2013, dated 2017).
